Reference: patent US8841269B2, “Polynucleotides for use in treating and diagnosing cancers” (Creighton University, priority 2010, dated 2014)
Entries after “also recorded” stand apart in the source; their conditions may differ.

Assays:
ER-α = assay: Immunoblot of ER-α after transfection in MCF7; assay type: cell-based, human; conditions: MCF7, mimics 60 nmol/L
Description: (§1) Immunoblot analysis. For Western blot in FFPE tissues, an established method was followed (Addis et al., 2009, Proteomics 9:3815-23). For MCF7 cell line, let-7 mimics and negative control miRNA (60 nmol/L), or let-7 inhibitors and anti-miR negative control (60 nmol/L) were transfected following the protocol of siPORT NeoFX Transfection Agent (Applied Biosystems), The Western blot procedure was described before (Zhang et al., 2010, J Proteome Res., 9(2):980-989). Antibody information is as follows: ER-α, RB-9016-P1, Thermoscientific; Cyclin D1, sc-8396, Santa Cruz; pS2, ab80782 was Abeam; β-Actin, sc-69879, Santa Cruz.

MCF7 cells [1] = assay: MTT cell proliferation assay in MCF7; assay type: cell-based, human
Description: (§2) MTT cell proliferation assay. MCF7 cells were transfected with let-7 mimics or negative controls (60 nmol/L) in normal growth medium for 1 day, or in medium with 2.5% charcoal-stripped FBS for 2 days to exhaust endogenous estrogen, following the protocol of siPORT NeoFX Transfection Agent (Applied Biosystems). For the experiment in normal growth medium, 10^4 cells in the volume of 100 μL were seeded in a 96-well plate for 12 hours and assay lasted for another 4 days. For experiments in E2 free medium, 1.5 10^4 cells were seeded in a 96-well plate for 12 hours and then exposed to 10 nmol/L E2, or not, for up to 4 days. For both experiments, each treatment had 12 replicates on the plate. The cells were then incubated in 0.83 mg/mL 3-[4,5-dimethylthiazol-2-yl]-2,5-diphenyltetrazolium bromide (MTT) in growth medium at 37° C. for 4 h and lysed in 100 μL of DMSO at room temperature for 15 min. The absorbance in each well was measured at 490 nm by an ELx800 Absorbance Microplate Reader (Biotek). Cell proliferation was normalized to day 0.

[2] = Real-time PCR quantification of mature let-7 after mimic transfection in MCF7; assay type: cell-based, human; conditions: MCF7, relative quantity against RNU48
Description: Quantitative real-time PCR. For miRNA quantification in FFPE tissues, total RNA was extracted as described above; for miRNA quantification in cell lines, total RNA was isolated using mirVana miRNA Isolation Kit (Ambion Inc.). cDNA was synthesized by using 100 ng total RNA in a reaction volume of 15 μL, by following the protocol of Taqman miRNA Reverse Transcription Kit (Applied Biosystems). After 15 times dilution, 9 μL cDNA was used for real-time PCR in a 20 μL reaction volume, including 10 μL of master mix and 1 μL Taqman probe (Applied Biosystems). This reaction system only detects mature miRNAs not pre-miRNAs. The level of each miRNA was expressed following the 2^−ΔΔCt or […] method using the small nuclear RNA, RNU48, as the internal reference.
(§3) For FFPE tissues, there was the same repeat number as in microarray; for cell lines, there were three biological repeats. Each sample had three technical repeats on the PCR plate. Real-time PCR was performed on an Applied Biosystems 7900HT real-time PCR instrument. PCR was initiated by two holds of 52° C. 2 min and 94° C. 10 min each, followed by 40 cycles of 15 s at 95° C. and 1 min at 60° C.

[3] = tested on: 3′ UTR of human ER-α gene; assay: Luciferase reporter assay, ER-α 3′ UTR let-7 binding site in pMIR-REPORT; assay type: cell-based; conditions: MCF7 cells
Description: Luciferase assay. A fragment of the 3′ UTR of human ER-α gene, which contains the putative let-7 target sites, was synthesized (IDT technology). With attached SpeI and HindIII restriction sites, the fragments are 48 by long. The sense strand was 5′-[…] (SEQ ID NO:39) while the antisense strand was 5′-[…] (SEQ ID NO:40). The cloning and transfection followed previous protocol (Hu et al., 2009, J Immunol 183:1617-24). Sixty nanomolar let-7 mimics, anti-let-7 inhibitors, pre-miR negative control #1 (AM17110, Ambion), or anti-miR negative control #1 (AM17010, Ambion) were transfected together with a 0.25 μg luciferase construct and a 0.25 μg β-galactosidase plasmid, which were used as a normalization reference. After 24 hour post-transfection, the luciferase activity was measured in a Veritas Microplate Luminometer (Turner Biosystems). Every treatment had 3 replicates. The luciferase activity was expressed as a fraction of negative control.

[4] = tested on: estrogen response element (ERE) construct; assay: ERE luciferase assay (2 ERE-tk-Luc), genomic estrogen pathway in MCF7; assay type: cell-based, human
Description: For checking on the genomic estrogen pathway, 10^5 MCF7 cells were first seeded into each well on a 24-well plate and cultured in IMEM with 2.5% charcoal-stripped FBS for 2 days. Then the cells were transfected as described above except that the estrogen response element (ERE) construct (2 ERE-tk-Luc; obtained from Katarine Pettersson, Karolinska Institute, Stockholm) replaced the pMIR-REPORT plasmid for 1 day. After stimulation with 10 nmol/L E2 for 12 hours, luciferase activity was measured as described above.

cyclin D1 = assay: Immunoblot of cyclin D1 after transfection in MCF7; assay type: cell-based, human; conditions: MCF7, mimics
Description: as §1

MCF7 cells [5] = assay: Annexin-V binding assay for apoptosis in MCF7; assay type: cell-based, human; conditions: MCF7, after either 3 days or 6 days
Description: Annexin-V binding assay for apoptosis. […] The staining followed the protocol of FITC Annexin V Apoptosis Detection Kit I (Cat #556547, BD Biosciences). Cell populations were analyzed with a BD FACSAria™ flow cytometer. Approximately 20,000 cells were counted for each sample.

[6] = tested on: ER-α negative MDA-MB-231 cell line; assay: MTT cell proliferation assay in MDA-MB-231; assay type: cell-based, human; conditions: MDA-MB-231, DMEM with 10% FBS
Description: FIG. 10. The effects of let-7a, let-7b, and let-7i miRNAs on cell proliferation in ER-α negative MDA-MB-231 cell line. Cancer cell proliferation was monitored by MTT assays in the same way as in MCF7 cell line except MDA-MB-231 cells were grown in DMEM with 10% FBS.
as §2

pS2 = assay: Immunoblot of pS2 after transfection in MCF7; assay type: cell-based, human; conditions: MCF7, mimics
Description: as §1

ER-α mRNA = assay: Real-time PCR of ER-α mRNA after transfection in MCF7; assay type: cell-based, human; conditions: MCF7, mimics, after 6 days
Description: For real-time PCR on the expression of ER-α, total RNA was extracted using Trizol reagent (Invitrogen). One microgram RNA was used for cDNA synthesis following the protocol of SuperScript III First-Strand Synthesis System (Invitrogen). After 10 times dilution, 4 μL cDNA was used in a 20 μL reaction volume, which included 4 μL of 1.5 μM primers, 2 μL of 2 μM probes, and 10 μL master mix (Applied Biosystems). β-actin was the internal control. The oligos for ER-α are: forward primer, 5′-GCGGCCACGGACCAT (SEQ ID NO:17); reverse primer, 5′-[…] (SEQ ID NO:18); probe, 5′-FAM-[…]-TAMRA (SEQ ID NO:19).
as §3

## let-7a: let-7a miRNA (mimic), 3′-UUGAUAUGUUGGAUGAUGGAGU-5′ (SEQ ID NO:7) (chemistry not given here; listed 3' to 5')
ER-α; after 2 days
  expression of ER-α (protein): significantly depressed the expression of ER-α
ER-α; after 6 days
  expression of ER-α (protein): modest effect
MCF7 cells [1]; MCF7, E2 free medium with addition of 10 nmol/L E2
  cell growth (MTT) with E2: least inhibition
MCF7 cells [1]; MCF7, E2 free medium with or without addition of 10 nmol/L E2 (FIG. 9B-D)
  cell growth (MTT): slightly inhibited
MCF7 cells [1]; MCF7, normal growth medium, 60 nmol/L
  cell proliferation (MTT): did not show a significant effect
[2]
  rank of forced expression throughout the time course: lowest expression
[3]; 60 nmol/L mimics, vs negative control miRNA
  luciferase activity, ER-α binding site in 3′UTR of luciferase: decreased the luciferase activity; also recorded: significantly inhibited the luciferase activity
[3]; mutated sequence in 3′UTR of luciferase
  luciferase activity, mutated ER-α binding sequence: abrogated the effects; also recorded: did not show inhibition
[4]; MCF7, p2 ERE-tk-Luc, 10 nmol/L E2 12 hours, p<0.01
  ERE luciferase activity: about 60 % of negative control
[4]; MCF7 cell line
  luciferase activity of the ERE construct: inhibit the luciferase activity of the ERE construct
Cyclin D1; after 2 days
  expression of cyclin D1 (protein): significantly inhibited
Cyclin D1; after 6 days
  protein expression of cyclin D1: affected neither
MCF7 cells [5]
  effect on apoptosis: not significant
[6]
  cell growth (MTT): None of three miRNAs significantly inhibited cell growth
pS2; after 2 days
  expression of pS2 (protein): significantly inhibited
pS2; after 6 days
  protein expression of pS2: affected neither
ER-α mRNA
  ER-α mRNA expression: relieved
